In patent US20240239759A1, “ISOXAZOLINE COMPOSITIONS AND THEIR USE AS ANTIPARASITICS” (Intervet Inc., priority 2007, published 2024):
Read-outs that look alike come from different tables or passages of the source.

Columns and labels:
[1] = tested on: brown dog ticks (Rhipicephalus sanguineus) nymphs; assay: Efficacy of various isoxazolines against brown dog ticks on Guinea pigs (Example 4); type: in vivo; conditions: po
Method: In this experiment, Guinea pigs were randomly assigned to a treatment group or a negative control (untreated) group. Each group consisted of three Guinea pigs. On Day Zero, each Guinea pig was infested with 100 vital nymphs of R. sanguineus. On Day 1, the Guinea pigs in the treatment groups were orally administered 10 mg/kg bodyweight of various isoxazolines dissolved in 7% DMF-premix and 93% purified water (aqua ad injectabilia). Engorged, detached nymphs were counted (eN) from Day 4 to […] on engorged nymphs (%) (eN control group—EeN treatment group)×100 eN control group
In addition, collected ticks were assessed for molting into the next stage.

[2] = tested on: cat fleas (Ctenocephalides felis); assay: Efficacy of various isoxazolines against cat fleas on mice (Example 3); type: in vivo; conditions: Ctenocephalides felis, po, read-out: Flea inhibition relative to negative control
Method: In this experiment, mice were randomly assigned to a treatment group or a negative control (untreated) group. Each group consisted of three mice. The mice in the treatment groups were orally administered 20 mg/kg bodyweight of various isoxazolines dissolved in 7% DMF-premix and 93% purified water (aqua ad injectabilia). The application volume of these treatments was 0.01 mL/g bodyweight. One hour after treatment, each mouse was sedated and generally infested (whole body) with 30 vital, adult fleas (C. felis). To achieve this, the sedated mice were placed into an infestation-jar, and the fleas were placed directly onto the fur. After approximately 30 minutes of feeding, fleas were recovered from the mice. Assessments for inhibition and mortality were conducted 1 hr, 24 hr, and 48 hr after each infestation. The efficacy was calculated as the percentage of inhibited fleas in the treatment groups relative to the negative control group.

[3] = tested on: cat fleas (Ctenocephalides felis); assay: Adult fleas fed on artificial membranes with spiked blood (Example 1); conditions: 48 hr continuous feeding
Method: Adult fleas (20-30) were fed on artificial membranes with blood spiked with Compound 10-1, Compound 11-1, or a positive control (fipronil) at a concentration of 100, 10, or 1 ppm. Flea efficacy was assessed after 48 hr of continuous feeding by comparing the number of killed and damaged fleas with the number of fed fleas. Flea efficacy was 100% for Compound 10-1, Compound 11-1, and fipronil at 100, 10, and 1 ppm.

[4] = Guinea pigs, oral 10 mg/kg on Day 1, infested Day Zero, engorged detached nymphs counted from Day 4, read-out: Inhibition (efficacy on engorged nymphs)
[5] = 1 h, mice, oral 20 mg/kg, infested 1 hr after treatment, 1 hr after infestation
[6] = 24 h, mice, oral 20 mg/kg, infested 1 hr after treatment, 24 hr after infestation
[7] = 48 h, mice, oral 20 mg/kg, infested 1 hr after treatment, 48 hr after infestation

Row | SMILES | pest or weed control at 10 mg/kg [1, 4] [%] | pest or weed control at 20 mg/kg [2, 5] [%] | pest or weed control at 20 mg/kg [2, 6] [%] | pest or weed control at 20 mg/kg [2, 7] [%] | also measured
1 | CCC(=O)N(Cc1cscn1)C(=O)c1ccc(C2=NOC(c3cc(Cl)cc(Cl)c3)(C(F)(F)F)C2)cc1C (stereo not shown) [Compound 5-58] | 100 | 11.1 | 100 | 100 | –
2 | COCN(C(=O)OC)C(=O)c1ccc(C2=NOC(c3cc(Cl)cc(Cl)c3)(C(F)(F)F)C2)cc1C (stereo not shown) [Compound 5-63] | 85.3 | 30 | 95.6 | 98.9 | –
3 | NC(=O)NC(=O)c1ccc(C2=NOC(c3cc(Cl)cc(Cl)c3)(C(F)(F)F)C2)cc1I (stereo not shown) [Compound 5-59] | 96.3 | 18.8 | 94.4 | 95.6 | –
4 | COC(=O)NC(=O)c1ccc(C2=NOC(c3cc(Br)cc(Br)c3)(C(F)(F)F)C2)cc1C (stereo not shown) [Compound 5-14] | – | – | – | – | pest or weed control at 10 mg/kg ([1]; read-out: Inhibition (efficacy on engorged nymphs)): 22.4%; pest or weed control at 20 mg/kg ([2]; 1 h): 4.4%; pest or weed control at 20 mg/kg ([2]; 24 h): 13.3%; pest or weed control at 20 mg/kg ([2]; 48 h): 22.2%
5 | CO/N=C\NC(=O)c1ccc(C2=NOC(c3cc(Cl)cc(Cl)c3)(C(F)(F)F)C2)cc1I (stereo not shown) [Compound 5-62] | 88.5 | 10 | 81.1 | 81.1 | –
6 | CO/N=C\NC(=O)c1ccc(C2=NOC(c3cc(Cl)cc(Cl)c3)(C(F)(F)F)C2)cc1C (stereo not shown) [Compound 5-43] | 0 | – | 92.2 | 92.2 | –
7 | COC(=O)N(C(=O)c1ccc(C2=NOC(c3cc(Cl)cc(Cl)c3)(C(F)(F)F)C2)cc1C)N(C)c1ccccc1 (stereo not shown) [Compound 5-47] | 58.5 | 0 | 95.6 | 96.7 | –
8 | CO/N=C\NC(=O)c1ccc(C2=NOC(c3cc(Cl)cc(Cl)c3)(C(F)(F)F)C2)cc1C (stereo not shown) [Compound 10-1, (Z)-4-[5-(3,5-dichlorophenyl)-5-trifluoromethyl-4,5-dihydroisoxazol-3-yl]-N-[(methoxyimino)methyl]-2-methylbenzamide] | – | – | – | – | Flea efficacy ([3]; blood spiked at 1 ppm): 100%; Flea efficacy ([3]; blood spiked at 10 ppm): 100%; Flea efficacy ([3]; blood spiked at 100 ppm): 100%
9 | Cc1cc(C2=NOC(c3cc(Cl)cc(Cl)c3)(C(F)(F)F)C2)ccc1C(=O)NCc1cscn1 (stereo not shown) [Compound 5-66] | 100 | 77.8 | 100 | 100 | –
10 | Cc1cc(C2=NOC(c3cc(Cl)cc(Cl)c3)(C(F)(F)F)C2)ccc1C(=O)NN(C)c1ccccc1 (stereo not shown) [Compound 5-52] | 93.4 | 0 | 96.7 | 96.7 | –
11 | CCOCN(C(=O)OC)C(=O)c1ccc(C2=NOC(c3cc(Cl)cc(Cl)c3)(C(F)(F)F)C2)cc1I (stereo not shown) [Compound 5-56] | 76 | 0 | 87.8 | 88.9 | –
12 | CON=CNC(=O)c1ccc(C2=NOC(c3cc(Cl)cc(Cl)c3)(C(F)(F)F)C2)cc1Cl (stereo not shown) [Compound 5-51] | 52.1 | 0 | 97.8 | 97.8 | –
13 | CCOCN(C(=O)OC)C(=O)c1ccc(C2=NOC(c3cc(Cl)cc(Cl)c3)(C(F)(F)F)C2)cc1C (stereo not shown) [Compound 5-65] | 79.2 | 58.8 | 92.2 | 93.3 | –
14 | CCON=CNC(=O)c1ccc(C2=NOC(c3cc(Cl)cc(Cl)c3)(C(F)(F)F)C2)cc1I (stereo not shown) [Compound 5-44] | 15.6 | 0 | 75.6 | 78.9 | –
15 | Cc1cc(C2=NOC(c3cc(Cl)cc(Cl)c3)(C(F)(F)F)C2)ccc1C(=O)Nc1ncc(C#N)cn1 (stereo not shown) [Compound 5-45] | 0 | 0 | 92.2 | 93.3 | –
16 | CC(=O)N(C(=O)c1ccc(C2=NOC(c3cc(Cl)cc(Cl)c3)(C(F)(F)F)C2)cc1C)c1ncc(Cl)cn1 (stereo not shown) [Compound 5-60] | 78.9 | 26.6 | 96.7 | 96.7 | –
17 | COCN(C(=O)c1ccc(C2=NOC(c3cc(Cl)cc(Cl)c3)(C(F)(F)F)C2)cc1C)c1ncc(C#N)cn1 (stereo not shown) [Compound 5-46] | 26.4 | 0 | 85.6 | 86.7 | –
18 | Cc1cc(C2=NOC(c3cc(Cl)cc(Cl)c3)(C(F)(F)F)C2)ccc1C(=O)N[C@@H]1CCOC1 (stereo partly shown) [Compound 5-68] | 100 | 75.5 | 91.1 | 95.6 | –
19 | CO/N=C\NC(=O)c1ccc(C2=NO[C@@](c3cc(Cl)cc(Cl)c3)(C(F)(F)F)C2)cc1C [Compound 5-36] | – | 45.7 | 99 | 99 | –
